From patent US20240287071A1, “CLASS OF IMIDAZOLIDINOPYRIMIDONE COMPOUNDS AND USE THEREOF IN TREATMENT OF HSCLPP-MEDIATED DISEASES” (SICHUAN UNIVERSITY, priority 2021, published 2024)
Where two headings read alike, the source gives them in different places.

Legend:
DLD1 = assay: CCK-8 in vitro anti-tumor proliferation assay; type: cell-based; settings: Homo sapiens, DLD-1, 72 hours
Method: (§1) Example 3: In vitro anti-tumor proliferation assay of the compounds. The purpose of this experiment was to use CCK-8 to detect the in vitro inhibitory activity of the compounds of the present invention against the proliferation of tumor cells. The main reagents, such as RPMI-1640, DMEM high-glucose culture medium, fetal bovine serum, trypsin, etc., were purchased from Gibco BRL. CCK8 and DMSO were products of Sigma. For in vitro experiment, the test compounds were prepared as 10 mM stock solutions in DMSO and stored at −20° C. in the refrigerator in the dark for later use, then diluted to desired concentration with complete culture medium before use. The human lung cancer cells, colon cancer cells, breast cancer cells, glioblastoma cells, human myelomonocytic leukemia cells, and human Burkitt's lymphoma cells used in this experiment were all purchased from the American ATCC company and preserved in laboratory of the inventors. All the above cell lines were cultured in RPMI-1640 complete medium or DMEM complete medium containing 10% fetal bovine serum, 100 U/mL penicillin, and 100 μg/mL streptomycin under 5% carbon dioxide, 37° C. conditions. […] The previous culture medium was discarded, fresh culture medium was added to resuspend the cells, and then the cells were counted. According to the growth rate of different cells, the cell seeding concentration was determined, generally being 3000-5000 cells/well. After determining the seeding concentration, the cell suspension was diluted to desired concentrations with fresh culture medium, and then added to a 96-well plate with 100 μL per well, and 200 μL of PBS was added to the edge wells to prevent evaporation of the culture medium. On the second day, drug treatment was performed. First, the compounds were diluted into a series of gradients with culture medium, and then the drug solution was added to the 96-well plate, with 3 parallel wells for each gradient. Each plate set a blank control group, and ONC201 was used as the positive control group.

HCT115 = assay: CCK-8 in vitro anti-tumor proliferation assay; type: cell-based; settings: Homo sapiens; Table 4; 72 hours
Method: as §1

HCT116 = assay: CCK-8 in vitro anti-tumor proliferation assay; type: cell-based; settings: Homo sapiens, HCT-116, 72 hours
Method: as §1

HT29 = assay: CCK-8 in vitro anti-tumor proliferation assay; type: cell-based; settings: Homo sapiens, HT-29; Table 4; 72 hours
Method: as §1

SW480 = assay: CCK-8 in vitro anti-tumor proliferation assay; type: cell-based; settings: Homo sapiens, Table 4, 72 hours
Method: as §1

SW620 = assay: CCK-8 in vitro anti-tumor proliferation assay; type: cell-based; settings: Homo sapiens, SW-620, 72 hours
Method: as §1

HsClpP [1] = biological target: T1, HsClpP (Homo sapiens, UniProt Q16740); assay: HsClpP enzyme hydrolysis of short peptide substrate AC-WLA-AMC; settings: for Regulatory efficacy 1 μM / Regulatory efficacy 10 μM: promoting hydrolysis of short peptide substrate by HsClpP, relative to blank control
Method: This study evaluated the regulatory activity of the compounds on HsClpP by examining the hydrolysis effects of HsClpP protein on the AC-WLA-AMC substrate . […] The small molecules and the HsClpP protein solution were added to a flat-bottomed black 96-well plate, with three replicate wells for each group. […] DMSO was used as a negative control instead of small molecules. The multiple of readings at different concentrations against the readings of DMSO group was recorded as an index for evaluation of hydrolysis activity. . . . GraphPad Prism was used to plot the obtained multiple values and calculate the EC50 values.

HsClpP [2] = biological target: T1, HsClpP; assay: Isothermal Titration calorimetry (ITC); type: binding; settings: FIG. 3
Method: Isothermal Titration calorimetry experiments can measure the binding affinity between small molecules and proteins. Binding affinity is generally measured and reported through the equilibrium dissociation constant (Kd), where the smaller the Kd value, the higher the binding affinity of the ligand for its target. In the experiment, the loading-samples and proteins were placed in a degassing apparatus at 30° C., with a vacuum degree of 400 mmHg or higher, and degassed for 10 minutes. A 50 mL PBS buffer was prepared, and the sample cell and syringe were rinsed. After rinsing, the liquid in the sample cell was completely removed, and the degassed protein and small molecules were taken out. The sample cell was thoroughly washed with protein, and the syringe was rinsed with the small molecule solution 3-5 times. After washing, 250 μL of protein (0.5 mM) was extracted using the syringe, avoiding the formation of bubbles. Subsequently, 200 μL was injected into the sample cell. 50 μL of the small molecule solution (0.1 mM) was extracted using an injector, again avoiding the formation of bubbles. The titration syringe was loaded onto the instrument, and titration commenced after the instrument was balanced.

HCT116 cells [3] = assay: Wound-healing cell migration assay; type: cell-based, human; settings: 24 hours; compared to the control group and the ONC201 group; FIG. 12
Text: Example 12: In vitro Antitumor Cell Migration Assay of Preferred Compound. Studies have shown that increased expression of HsClpP is crucial for the proliferation and migration of certain cancer cell lines, while functional disruption of HsClpP in cancer cells can inhibit cell migration.
Wound-Healingcan be used to detect the invasive ability of adherent tumor cells. By observing the healing ability of tumor cells towards scratches under different conditions, the impact of the compound on the ability of tumor cell migration can be reflected.

SDHB and ATF4 = assay: Levels of SDHB and ATF4 in HCT116 cells; settings: dose-dependently; FIG. 7
A549 = assay: CCK-8 in vitro anti-tumor proliferation assay; type: cell-based; settings: Homo sapiens, read-out: IC50(uM) A549
Method: as §1

MV-4-11 = assay: CCK-8 in vitro anti-tumor proliferation assay; type: cell-based; settings: Homo sapiens, read-out: IC50(uM) MV-4-11
Method: as §1

Raji = assay: CCK-8 in vitro anti-tumor proliferation assay; type: cell-based; settings: Homo sapiens, read-out: IC50(uM) Raji
Method: as §1

HCT116 cells [4] = assay: Apoptosis, Annexin V/PI staining; settings: 1.25 μM; FIG. 10
[5] = system: human normal embryonic kidney cells (HEK293); assay: In vitro cytotoxicity assay, CCK-8; settings: up to 50μM; FIG. 13
Method: (§2) CCK8 and DMSO were products of Sigma. For in vitro experiment, the test compounds were prepared as 10 mM stock solutions in DMSO and stored at −20° C. in the refrigerator in the dark for later use, then diluted to desired concentration with complete culture medium before use. […] The previous culture medium was discarded, fresh culture medium was added to resuspend the cells, and then the cells were counted. According to the growth rate of different cells, the cell seeding concentration was determined, generally being 3000-5000 cells/well. After determining the seeding concentration, the cell suspension was diluted to desired concentrations with fresh culture medium, and then added to a 96-well plate with 100 μL per well, and 200 μL of PBS was added to the edge wells to prevent evaporation of the culture medium. On the second day, drug treatment was performed.

[6] = system: rat myocardial cells (H9C2); assay: In vitro cytotoxicity assay, CCK-8; settings: FIG. 13
Method: as §2

A172 = assay: CCK-8 in vitro anti-tumor proliferation assay; type: cell-based; settings: Homo sapiens, A 172; Table 3; 72 hours
Method: as §1

[7] = system: HCT116 CRC xenograft tumors; assay: HCT116 xenograft nude mouse model; settings: 100 mg/kg oral, twice a week, six doses
Text: (A) Observation of tumor size in mice after treatment; (B) Photographs of excised tumor tissue after treatment; (C) Relative change in mouse body weight during treatment; (D) Relative volume change of tumors during treatment. Measurements were taken every other day; N=6 animals per group.

[8] = Table 4, read-out: IC50 ( M) DLD1
[9] = Table 4, read-out: IC50 ( M) HCT116
[10] = Table 5, HCT116, read-out: IC50
[11] = Table 4, read-out: IC50 ( M) SW620
[12] = Table 3, read-out: IC50(uM) DLD1
[13] = Table 3, read-out: IC50(uM) SW620

T1 sequence (Q16740 57-277): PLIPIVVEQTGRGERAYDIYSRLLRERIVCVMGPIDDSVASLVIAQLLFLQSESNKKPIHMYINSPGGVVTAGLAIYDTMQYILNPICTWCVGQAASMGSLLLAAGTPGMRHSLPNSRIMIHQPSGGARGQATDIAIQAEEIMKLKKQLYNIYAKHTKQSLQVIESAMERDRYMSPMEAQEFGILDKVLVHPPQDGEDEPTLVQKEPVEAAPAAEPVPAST

| Structure (SMILES) | IC50 (DLD1; [8]) [M] | IC50 (HCT115) [nM] | IC50 (HCT116; [9]) [M] | IC50 (HCT116; [10]) [M] | IC50 (HT29) [nM] | IC50 (SW480) [nM] | IC50 (SW620; [11]) [M] | Regulatory efficacy 1 μM (HsClpP [1]) | Regulatory efficacy 10 μM (HsClpP [1]) | IC50 (A172) [µM] | IC50 (A549; A549, Table 3, 72 hours) [µM] | IC50 (DLD1; [12]) [M] | IC50 (MV-4-11; MV4-11, Table 3, 72 hours) [µM] | IC50 (Raji; Table 3, 72 hours) [µM] | IC50 (SW620; [13]) [M] | further results |
| --- | --- | --- | --- | --- | --- | --- | --- | --- | --- | --- | --- | --- | --- | --- | --- | --- |
| O=c1nc2n(c3c1CN(Cc1ccccc1)CC3)CCN2Cc1ccc(F)cc1 [Compound 15, 7-benzyl-3-(4-fluorobenzyl)-2,3,6,7,8,9-hexahydroimidazo[1,2-a]pyrido[3,4-e]pyrimidin-5(1H)-one] | 9e-08 | 200 | 8e-08 | 8e-08 | 400 | 170 | 1.9e-07 | + + | + + |  |  |  |  |  |  | EC50 (HsClpP [1]): 100 nM |
| Cc1ccccc1CN1C(=O)C2=C(CCN(Cc3ccccc3)C2)N2CCN=C12 [ONC201, reference compound] |  |  |  |  |  |  |  |  |  |  |  |  |  |  |  | IC50 (A549; A549, 72 h): 10 µM; IC50 (MV-4-11; MV4-11, 72 h): 5 µM; IC50 (Raji; 72 h): 2.5 µM; apoptotic rate (HCT116 cells [4]): < 4.09%; cytotoxicity on HEK293 cells [5]: no significant cytotoxicity; inhibitory activity on H9C2 cells [6]: no significant inhibitory activity; ATF4 level (SDHB and ATF4): ATF4 accumulation; SDHB level (SDHB and ATF4): reduction in SDHB level |
| Cc1ccccc1CN1CCn2c1nc(=O)c1c2CCN(Cc2ccccc2)C1 [Compound 1, 7-benzyl-3-(2-methylbenzyl)-2,3,6,7,8,9-hexahydroimidazo[1,2-a]pyrido[3,4-e]pyrimidin-5(1H)-one] | 5e-07 | 1300 | 4e-07 | 4e-07 | 5300 | 1100 | 6e-07 | + + | + + | 0.5 | 2 | 2e-07 | 0.8 | 1 | 6e-07 | ITC thermodynamics of titration with HsClpP (AH, AS) (HsClpP [2]): AH<0, AS<0; Kd, affinity for HsClpP (HsClpP [2]; compared to ONC201): much higher affinity for HsClpP compared to ONC201; cytotoxicity on HEK293 cells [5]: no significant cytotoxicity; inhibitory activity on H9C2 cells [6]: no significant inhibitory activity; EC50 (HsClpP [1]; excitatory activity on HsClpP): 300 nM |
| Cc1ccccc1CN1C(=O)C2=C(CCN(Cc3ccccc3)C2)N2CCN=C12 [ONC201·2HCl] |  |  |  |  |  |  |  |  |  |  |  |  |  |  |  | TGI (tumor growth inhibition) [7]: 57% |
| O=c1nc2n(c3c1CN(Cc1ccccc1)CC3)CCN2Cc1ccc(Cl)cc1 [Compound 16, 7-benzyl-3-(4-chlorobenzyl)-2,3,6,7,8,9-hexahydroimidazo[1,2-a]pyrido[3,4-e]pyrimidin-5(1H)-one] | 1e-07 | 250 | 8e-08 | 8e-08 | 70 | 100 | 1.7e-07 | + + | + + |  |  |  |  |  |  |  |

Further lines, with some results ahead:

| IC50 (DLD1; [8]) [M] | IC50 (HCT115) [nM] | IC50 (HCT116; [9]) [M] | IC50 (HCT116; [10]) [M] | IC50 (HT29) [nM] | IC50 (SW480) [nM] | IC50 (SW620; [11]) [M] | Regulatory efficacy 1 μM (HsClpP [1]) | Regulatory efficacy 10 μM (HsClpP [1]) | IC50 (A172) [µM] | IC50 (A549; A549, Table 3, 72 hours) [µM] | IC50 (DLD1; [12]) [M] | IC50 (MV-4-11; MV4-11, Table 3, 72 hours) [µM] | IC50 (Raji; Table 3, 72 hours) [µM] | IC50 (SW620; [13]) [M] | Structure (SMILES) | further results |
| --- | --- | --- | --- | --- | --- | --- | --- | --- | --- | --- | --- | --- | --- | --- | --- | --- |
|  |  |  |  |  |  |  | + + | + + |  |  |  |  |  |  | O=c1nc2n(c3c1CN(Cc1ccccc1)CC3)CCN2Cc1ccc(F)c(Br)c1 [Compound 21, 7-benzyl-3-(3-bromo-4-fluorobenzyl)-2,3,6,7,8,9-hexahydroimidazo[1,2-a]pyrido[3,4-e]pyrimidin-5 (1H)-one] | ITC thermodynamics of titration with HsClpP (AH, AS) (HsClpP [2]): AH<0, AS<0; migration ability of HCT116 cells (HCT116 cells [3]): significantly inhibited; ATF4 level (SDHB and ATF4): ATF4 accumulation; SDHB level (SDHB and ATF4): reduction in SDHB level |
| 1.5e-07 | 200 | 1e-07 | 1e-07 | 50 | 120 | 1.5e-07 | + + | + + | 0.1 | 0.5 | 5e-07 | 0.025 | 0.1 | 1.4e-07 | O=c1nc2n(c3c1CN(Cc1ccccc1)CC3)CCN2Cc1ccc(F)c(F)c1 [Compound 20, 7-benzyl-3-(3,4-difluorobenzyl)-2,3,6,7,8,9-hexahydroimidazo[1,2-a]pyrido[3,4-e]pyrimidin-5(1H)-one] |  |
|  |  |  | 3e-07 |  |  |  | + + | + + | 0.2 | 0.2 | 1.5e-07 | 0.05 | 0.1 | 5e-07 | O=c1nc2n(c3c1CN(Cc1ccccc1)CC3)CCN2Cc1ccc(C(F)(F)F)cc1 [Compound 18, 7-benzyl-3-(4-trifluoromethylbenzyl)-2,3,6,7,8,9-hexahydroimidazo[1,2-a]pyrido[3,4-e]pyrimidin-5(1H)-one] | EC50 (HsClpP [1]): 300 nM |
| 9e-08 | 120 | 9e-08 | 1e-07 | 80 | 120 | 9e-08 | + + | + + | 0.15 | 0.4 | 2e-07 | 0.05 | 0.1 | 1.5e-07 | O=c1nc2n(c3c1CN(Cc1ccccc1)CC3)CCN2Cc1ccc(F)cc1F [Compound 19, 7-benzyl-3-(2,4-difluorobenzyl)-2,3,6,7,8,9-hexahydroimidazo[1,2-a]pyrido[3,4-e]pyrimidin-5(1H)-one] |  |
